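Cultured in 96-well plates, cells were exposed to test compound for 48 hours across five concentrations. Here, GI50 denotes the concentration required for 50% inhibition of growth. TGI marks complete inhibition of growth.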
Assays:
Assay in all cases: NCI-60 cell line screen, 48 h
[1] = tested on: SK-MEL-5 melanoma
[2] = tested on: MDA-MB-231 breast
[3] = tested on: CCRF-CEM leukemia
[4] = tested on: HOP-92 NSCLC
[5] = tested on: SF-268 CNS
[6] = tested on: PC-3 prostate
[7] = tested on: SNB-19 CNS
[8] = tested on: OVCAR-8 ovarian
[9] = tested on: HCC-2998 colon
[10] = tested on: OVCAR-5 ovarian

| SMILES | GI50 [1] | TGI [1] | GI50 [2] | TGI [2] | GI50 [3] | TGI [3] | GI50 [4] | TGI [4] | GI50 [5] | TGI [5] | GI50 [6] | TGI [6] | GI50 [7] | TGI [7] | GI50 [8] | TGI [8] | GI50 [9] | TGI [9] | GI50 [10] | TGI [10] |
| --- | --- | --- | --- | --- | --- | --- | --- | --- | --- | --- | --- | --- | --- | --- | --- | --- | --- | --- | --- | --- |
| COC(=O)c1cc(NC(=O)CN(CCN(CC(=O)O)CC(=O)Nc2ccc(O)c(C(=O)OC)c2)CC(=O)O)ccc1O | 47.2 µM | > 100 µM | > 100 µM | > 100 µM | 30.9 µM | > 100 µM | > 100 µM | > 100 µM | 43.2 µM | > 100 µM | 96.2 µM | > 100 µM | 41.9 µM | > 100 µM | 77.3 µM | > 100 µM | 97.4 µM | > 100 µM | > 100 µM | > 100 µM |
| Cc1cccc2c1ccc1c3occ(C)c3c(=O)oc21 | > 100 µM | > 100 µM | > 100 µM | > 100 µM | > 100 µM | > 100 µM | 49.9 µM | > 100 µM | > 100 µM | > 100 µM | > 100 µM | > 100 µM | > 100 µM | > 100 µM | > 100 µM | > 100 µM | > 100 µM | > 100 µM | > 100 µM | > 100 µM |
| CC#CC(=O)N[C@H]1CCCN(c2c(F)cc(C(N)=O)c3[nH]c(C)c(C)c23)C1 | 17.9 µM | 31.9 µM | 14 µM | 29.1 µM | 27.5 µM | 85 µM | 15.6 µM | 64.7 µM | 17.4 µM | 45.1 µM | 21.5 µM | 62.2 µM | 15.3 µM | 28.6 µM | 26.1 µM | 94.7 µM | 16.6 µM | 30.7 µM | 23 µM | 88.5 µM |
| CC(=O)Nc1ccc(S(=O)(=O)c2ccc(NC(C)=O)cc2)cc1 | > 100 µM | > 100 µM | > 100 µM | > 100 µM | > 100 µM | > 100 µM | > 100 µM | > 100 µM |  |  | > 100 µM | > 100 µM |  |  | > 100 µM | > 100 µM | > 100 µM | > 100 µM | > 100 µM | > 100 µM |
| O=[N+]([O-])c1ccc(NN=C2c3ccccc3Cc3ccccc32)c([N+](=O)[O-])c1 |  | > 100 µM |  | > 100 µM |  | 18.2 µM |  | > 100 µM |  | > 100 µM |  | > 100 µM |  | > 100 µM |  | > 100 µM |  | > 100 µM |  | > 100 µM |
| O=C1C(Cl)=C(Nc2ccccn2)C(=O)c2ccccc21 | 1.65 µM | 3.03 µM | 3.23 µM | 16.6 µM | 3.79 µM | 12.5 µM | 3.17 µM | 9.84 µM | 2.74 µM | 7.55 µM | 2.27 µM | 8.35 µM | 4.53 µM | 16.3 µM | 3.25 µM | 13 µM | 17.8 µM | 33.7 µM | 7.42 µM | 23.2 µM |
| Cc1cccc2c1NC(=O)C2(c1ccc(O)cc1)c1ccc(O)cc1 | 15.9 µM | 33.2 µM | 13.3 µM | 33.3 µM | 22.3 µM | > 100 µM | 1.42 µM | 27.6 µM | 19.8 µM | > 100 µM | 0.0497 µM | > 62 µM | 28.5 µM | > 100 µM | < 0.0192 µM | 13.7 µM | 0.0706 µM | 24.6 µM | 12.8 µM | 67.1 µM |
| C=CCCC(O)c1ccc(CCCCCCCCCCC)o1 (stereo not given) | 17 µM | 31.5 µM | 12.6 µM | 26.2 µM | 19.3 µM | 40 µM | 18.2 µM | 35.9 µM | 19.3 µM | 43.9 µM | 18.8 µM | 36.6 µM | 18.8 µM | 35 µM | 18.3 µM | 35.6 µM | 18.4 µM | 36.5 µM | 18.3 µM | 35.9 µM |
| CCCC(=O)Nc1ncnc2c1ncn2C1OC2COP(=O)(O)OC2C1OC(=O)CCC (stereo not given) | > 1000 µM | > 1000 µM |  | > 1000 µM |  | > 1000 µM |  | > 1000 µM | > 1000 µM | > 1000 µM | > 1000 µM | > 1000 µM | > 1000 µM | > 1000 µM | > 1000 µM | > 1000 µM | > 1000 µM | > 1000 µM | > 1000 µM | > 1000 µM |
| CNc1ccc(C(=O)CC(O)CCC(C)C2OC(=O)CC(O)CC(=O)CC(O)CC(O)CC(O)CC(O)CC3(O)CC(O)C(C(=O)NCCc4ccccn4)C(CC(OC4OC(C)C(O)C(N)C4O)/C=C/C=C/C=C/C=C\C=C/C=C/C=C/C2C)O3)cc1 (stereo not given) | 0.157 µM | 0.447 µM | 6.23 µM | > 21.2 µM | 1.77 µM | > 50 µM | 1.48 µM | 19.2 µM | 0.141 µM | 0.439 µM | 0.336 µM | > 11.6 µM | 14.8 µM | > 50 µM | 0.747 µM |  | 1.59 µM | 4.88 µM | 0.323 µM | 2.02 µM |
| O=C(OC(CNc1c(C(=O)c2ccccc2)c(=O)n(Cc2ccccc2)c(=O)n1Cc1ccccc1)CN1CCCCC1)c1ccccc1 (stereo not given) | 18.2 µM | 42.5 µM | 17.6 µM | 32.4 µM | 16 µM | 40 µM |  |  | 24.1 µM | 53.2 µM | 13.1 µM | 26.4 µM | 30.4 µM | 83.5 µM | 18.3 µM | 39.7 µM | 12.1 µM | 24.4 µM | 24.7 µM | 63.4 µM |
| CCNC(=O)c1ccc2c(c1)nc(-c1ccc(Cl)cc1)n2-c1cc(C(C)(C)C)[nH]n1 | 1.54 µM | 5.72 µM | 5.56 µM | 28.5 µM | 2.94 µM | 40.7 µM | 1.36 µM | 7.77 µM | 3.42 µM | 15.4 µM | 2.87 µM | 48.8 µM | 3.97 µM | > 100 µM | 3.06 µM | 13.4 µM | 3.96 µM | 26.7 µM | 5.91 µM | 40.1 µM |
| C/C=C(\C)C(=O)OC1C2C(C)C(=O)OC2C(O)C(C)C2C=CC(=O)C21C (stereo not given) |  | 21.4 µM |  | 13.7 µM |  | 35.1 µM |  | 50.5 µM |  | 56.5 µM |  | 34.1 µM |  | 26.3 µM |  | 34.8 µM |  | 29.8 µM |  | 38.8 µM |
